As usually defined, the melting point is the temperature of the solid-liquid transition. Molecule `CCCCc1nn(CC#N)c(=O)n1Cc1ccc(-c2ccccc2-c2nnn[nH]2)cc1` returned a melting point of 86 to 88 °C. Consider `CCC12CCC3c4ccc(OC)cc4CCC3C1C=CC2=O` (stereo not given), for which the melting point lay in the range of 158 to 160 °C. `Cc1cc(C2=NN(C(=S)Cl)[C@H](C)Cc3cc4c(cc32)OCO4)ccc1[N+](=O)[O-]` displayed a melting point of 193 to 196 °C. Molecule `CCOc1nc(Cl)nc2cscc12` gave a melting point of 136 to 140 °C. To `COc1ccccc1-c1c(NC(=O)OC(C)(C)C)oc(=O)c2ccccc12` belongs 203 to 205 °C; to `CCCCCCCCCCCCn1nnc(CCC(=O)OC)n1`, 39 to 42 °C. Take `CNS(=O)(=O)c1ccc(OC)c(C(=O)NCC2CCCN2CC2=CCCCC2)c1` (stereo not given): the melting point lay in the range of 140 to 141 °C.

Consider `COc1cc(/C=C/C=C/C(=O)NCCN2CCC(c3c[nH]c4ccccc34)CC2)ccc1OC(C)=O`, for which the melting point lay in the range of 101 to 105 °C.

As for `CC(C)C[C@H](NC(=O)c1cccc(Cl)c1)C(=O)N[C@@H](C(C)C)[C@@H](O)c1c(-c2ccccc2)c1=O`, the melting point worked out at 179 °C. To `COC(=O)c1cccc(-c2ccncn2)c1` belongs 69 to 71 °C. In the case of `COC(=O)C1Oc2ccc(Cl)cc2C(c2ccccc2)(C2CCCCC2)O1` (stereo not given), the melting point was determined as 142 °C. In turn, `Cc1ccc(-c2ccc(OC3SCC(O)C(O)C3O)cn2)cn1` (stereo not given) came in with a melting point of 228 °C. `Cc1nc(-c2cccc(Nc3ccc(I)cc3N)c2)cs1` showed a melting point of 151 to 152 °C. For `Cc1cc(N2CC=C(C(N)=O)CC2)c2cccc(-c3ccc(Cl)cc3Cl)c2n1`, the melting point fell in the range of 264 to 266 °C. Molecule `COC(=O)c1ccc(-c2ccc(Br)c3nsnc23)cc1` registered a melting point of 188 to 192 °C.

`C=CCc1cc(C#N)ccc1O` returned a melting point of 70 °C. Regarding `Cc1cc(Cl)nn2c(-c3ccnc4[nH]ccc34)c(-c3ccc(F)cc3)nc12`, the melting point fell in the range of 226 to 228 °C. For `Cc1cc(-c2[nH]c3ccccc3c2C)cc(C)c1O`, the melting point lay in the range of 143 to 144 °C. `COc1cc(OC)c(-c2ccc(O)c(C34CC5CC(CC(C5)C3)C4)c2)cc1C=C1SC(C2CCNC2)=NC1=O` (stereo not given) showed a melting point of 343 to 345 °C.

Turning to `CC(C)(O)c1ccc(CNC(=O)c2cccnc2Oc2ccc3c(c2)OCO3)cc1`, the melting point fell in the range of 118 to 120 °C. Regarding `COc1cc(C(=O)O)cc2c1C(=O)c1c(OC)ccc(OC)c1C2=O`, the melting point lay in the range of 260 to 262 °C. To `CCOC(=Nc1cccc(C(F)(F)F)c1)C(C)C` belongs 95 to 100 °C. The molecule `Cc1ncc(CSC(=O)c2ccccc2)c(CO)c1O` showed a melting point of 174 to 177 °C.

`Cc1nc(-c2ccc(-c3cccs3)cc2)c(-c2ccc(S(C)(=O)=O)cc2)o1` had a melting point of 183 to 185 °C. The molecule `Nc1ccccc1C(O)c1cc(C(F)(F)F)nc2c(C(F)(F)F)cccc12` (stereo not given) came in with a melting point of 146 °C. As for `CC12CC(O)CC1C1CCc3cc(O)ccc3C1C(c1ccccc1)C2` (stereo not given), the melting point lay in the range of 241 to 247 °C.

`Fc1cccc2c(NCCc3nc(-c4ccccc4)cs3)ccnc12` returned a melting point of 134 to 135 °C. To `Oc1cc(Br)c2oc(-c3ccc(O)c(F)c3F)nc2c1` belongs 258 to 260 °C; to `O=C(Nc1nc(C(F)(F)F)co1)C1c2ccccc2Oc2ccccc21`, 222 °C; to `CNc1ccc(NC(=O)c2ccc(-c3[nH]nc4c3C(=O)c3c(NC(=O)NN5CCOCC5)cccc3-4)s2)cc1`, 230 °C. For `CN1C(=O)CN(c2cccc(O)c2)NC1=O`, the melting point fell in the range of 95 to 96 °C. To `COC(C(=O)Nc1cc(Cl)cc(Cl)c1)C(=O)OC(C)(C)C` (stereo not given) belongs 130 to 132 °C. As to `N#CC=C1CCN(c2ccc(N3C[C@H](CNC(=O)C(Cl)Cl)OC3=O)cc2F)CC1`, the melting point is 159 to 161 °C.

Take `CCOC(=O)NC1(c2ccc(C(C)C)cc2OC)C(=O)c2ccccc2C1=O`: the melting point is 149 to 150 °C. Molecule `N#Cc1ccc(CC23CCCN2C(=O)N(c2cc(Cl)cc(-n4cccc4C=O)c2)C3=O)cc1` (stereo not given) had a melting point of 110 °C.

The record behind these values is a melting point compilation (Tetko et al.; mined from patent text by program, amines drawn as free bases though some values may be those of a salt).
